ChEMBL document CHEMBL2010722, “Structure-activity relationship study of beta-carboline derivatives as haspin kinase inhibitors” (Bioorg Med Chem Lett, 2012)

What was measured:
[1] = biological target: Vascular endothelial growth factor receptor 1 (Homo sapiens) (UniProt P17948); experiment: Inhibition of FLT1 at 10 uM
[2] = biological target: Dual specificity protein kinase TTK (Homo sapiens) (UniProt P33981); experiment: Inhibition of TTK at 10 uM
[3] = system: Tyrosine-protein kinase ABL1 (Homo sapiens), P00519 [E255K]; experiment: Inhibition of ABL E255K mutant at 10 uM
[4] = biological target: MAP kinase-interacting serine/threonine-protein kinase 1 (Homo sapiens) (UniProt Q9BUB5); experiment: Inhibition of MNK1 at 10 uM
[5] = biological target: Serine/threonine-protein kinase PLK2 (Homo sapiens) (UniProt Q9NYY3); experiment: Inhibition of PLK2 at 10 uM
[6] = biological target: Ephrin type-A receptor 6 (Homo sapiens) (UniProt Q9UF33); experiment: Inhibition of EPHA6 at 10 uM
[7] = system: Proto-oncogene tyrosine-protein kinase receptor Ret (Homo sapiens), P07949 [M918T]; experiment: Inhibition of RET M918T mutant at 10 uM
[8] = biological target: Dual specificity protein kinase CLK1 (Homo sapiens) (UniProt P49759); conditions: 10 uM
[9] = system: Serine/threonine-protein kinase B-raf (Homo sapiens), P15056 [V600E]; experiment: Inhibition of BRAF V600E mutant at 10 uM
[10] = biological target: Non-receptor tyrosine-protein kinase TNK1 (Homo sapiens) (UniProt Q13470); experiment: Inhibition of TNK1 at 10 uM
[11] = biological target: BDNF/NT-3 growth factors receptor (Homo sapiens) (UniProt Q16620); experiment: Inhibition of TRKB at 10 uM
[12] = biological target: Serine/threonine-protein kinase MRCK beta (Homo sapiens) (UniProt Q9Y5S2); experiment: Inhibition of MRCKb at 10 uM
[13] = biological target: Eukaryotic elongation factor 2 kinase (Homo sapiens) (UniProt O00418); experiment: Inhibition of EEF2K at 10 uM
[14] = biological target: Misshapen-like kinase 1 (Homo sapiens) (UniProt Q8N4C8); experiment: Inhibition of MINK at 10 uM
[15] = biological target: Non-receptor tyrosine-protein kinase TYK2 (Homo sapiens) (UniProt P29597); experiment: Inhibition of TYK2 at 10 uM
[16] = biological target: Maternal embryonic leucine zipper kinase (Homo sapiens) (UniProt Q14680); experiment: Inhibition of MELK at 10 uM
[17] = biological target: Mitogen-activated protein kinase 11 (Homo sapiens) (UniProt Q15759); experiment: Inhibition of p38beta at 10 uM
[18] = system: Epidermal growth factor receptor (Homo sapiens), P00533 [L861Q]; experiment: Inhibition of EGFR L861Q mutant at 10 uM; assay type: protein assay
[19] = biological target: NUAK family SNF1-like kinase 2 (Homo sapiens) (UniProt Q9H093); experiment: Inhibition of NuaK2 at 10 uM
[20] = biological target: Tyrosine-protein kinase ABL2 (Homo sapiens) (UniProt P42684); experiment: Inhibition of ARG at 10 uM
[21] = biological target: Serine/threonine-protein kinase WNK1 (Homo sapiens) (UniProt Q9H4A3); experiment: Inhibition of WNK1 at 10 uM
[22] = biological target: Ephrin type-B receptor 4 (Homo sapiens) (UniProt P54760); experiment: Inhibition of EPHB4 at 10 uM
[23] = biological target: RAC-gamma serine/threonine-protein kinase (Homo sapiens) (UniProt Q9Y243); experiment: Inhibition of AKT3 at 10 uM
[24] = biological target: Tyrosine-protein kinase JAK1 (Homo sapiens) (UniProt P23458); experiment: Inhibition of JAK1 at 10 uM
[25] = biological target: Mitogen-activated protein kinase 13 (Homo sapiens) (UniProt O15264); experiment: Inhibition of p38delta at 10 uM
[26] = biological target: Discoidin domain-containing receptor 2 (Homo sapiens) (UniProt Q16832); experiment: Inhibition of DDR2 at 10 uM
[27] = biological target: Interleukin-1 receptor-associated kinase 4 (Homo sapiens) (UniProt Q9NWZ3); experiment: Inhibition of IRAK4 at 10 uM
[28] = biological target: Macrophage-stimulating protein receptor (Homo sapiens) (UniProt Q04912); experiment: Inhibition of RON at 10 uM
[29] = biological target: Tyrosine-protein kinase receptor UFO (Homo sapiens) (UniProt P30530); experiment: Inhibition of AXL at 10 uM
[30] = biological target: Tyrosine-protein kinase SYK (Homo sapiens) (UniProt P43405); experiment: Inhibition of SYK at 10 uM
[31] = biological target: T1, Serine/threonine-protein kinase haspin (Homo sapiens, UniProt Q8TF76)
T1 sequence (Q8TF76 whole entry): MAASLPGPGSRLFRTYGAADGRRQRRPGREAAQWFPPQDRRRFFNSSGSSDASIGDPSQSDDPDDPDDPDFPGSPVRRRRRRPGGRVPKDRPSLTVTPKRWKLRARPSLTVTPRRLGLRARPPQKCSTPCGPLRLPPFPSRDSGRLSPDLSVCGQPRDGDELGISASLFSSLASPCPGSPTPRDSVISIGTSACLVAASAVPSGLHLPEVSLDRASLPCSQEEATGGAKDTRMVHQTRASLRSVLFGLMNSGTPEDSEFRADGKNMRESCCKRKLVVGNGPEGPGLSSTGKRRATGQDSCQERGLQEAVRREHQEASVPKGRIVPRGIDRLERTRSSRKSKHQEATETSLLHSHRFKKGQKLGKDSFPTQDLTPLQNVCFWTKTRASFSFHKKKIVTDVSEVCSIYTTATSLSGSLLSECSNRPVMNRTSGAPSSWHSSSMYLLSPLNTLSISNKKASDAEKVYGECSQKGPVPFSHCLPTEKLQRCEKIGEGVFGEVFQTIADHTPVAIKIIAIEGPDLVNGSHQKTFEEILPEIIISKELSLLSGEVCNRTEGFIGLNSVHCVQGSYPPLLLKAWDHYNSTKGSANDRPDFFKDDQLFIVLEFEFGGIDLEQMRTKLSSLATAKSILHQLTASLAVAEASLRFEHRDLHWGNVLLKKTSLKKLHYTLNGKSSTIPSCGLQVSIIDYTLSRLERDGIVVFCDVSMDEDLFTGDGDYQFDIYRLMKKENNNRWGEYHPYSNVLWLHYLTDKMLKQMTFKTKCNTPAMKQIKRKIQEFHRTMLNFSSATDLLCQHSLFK

[32] = system: Mast/stem cell growth factor receptor Kit (Homo sapiens), P10721 [T670I]; experiment: Inhibition of KIT T670I mutant at 10 uM
[33] = biological target: Aurora kinase B/Inner centromere protein (Homo sapiens) (UniProt Q96GD4+Q9NQS7); experiment: Inhibition of AurB-INCENP at 10 uM; assay type: protein-complex assay
[34] = system: Epidermal growth factor receptor (Homo sapiens), P00533 [L858R,T790M]; experiment: Inhibition of EGFR T790M/L858R mutant at 10 uM; assay type: protein assay
[35] = biological target: Cyclin-dependent kinase 1/cyclin B1 (Homo sapiens) (UniProt P06493+P14635); experiment: Inhibition of CDC2-CycB1 at 10 uM; assay type: protein-complex assay

Chain of Serine/threonine-protein kinase MRCK beta (Homo sapiens) (Q9Y5S2 whole entry): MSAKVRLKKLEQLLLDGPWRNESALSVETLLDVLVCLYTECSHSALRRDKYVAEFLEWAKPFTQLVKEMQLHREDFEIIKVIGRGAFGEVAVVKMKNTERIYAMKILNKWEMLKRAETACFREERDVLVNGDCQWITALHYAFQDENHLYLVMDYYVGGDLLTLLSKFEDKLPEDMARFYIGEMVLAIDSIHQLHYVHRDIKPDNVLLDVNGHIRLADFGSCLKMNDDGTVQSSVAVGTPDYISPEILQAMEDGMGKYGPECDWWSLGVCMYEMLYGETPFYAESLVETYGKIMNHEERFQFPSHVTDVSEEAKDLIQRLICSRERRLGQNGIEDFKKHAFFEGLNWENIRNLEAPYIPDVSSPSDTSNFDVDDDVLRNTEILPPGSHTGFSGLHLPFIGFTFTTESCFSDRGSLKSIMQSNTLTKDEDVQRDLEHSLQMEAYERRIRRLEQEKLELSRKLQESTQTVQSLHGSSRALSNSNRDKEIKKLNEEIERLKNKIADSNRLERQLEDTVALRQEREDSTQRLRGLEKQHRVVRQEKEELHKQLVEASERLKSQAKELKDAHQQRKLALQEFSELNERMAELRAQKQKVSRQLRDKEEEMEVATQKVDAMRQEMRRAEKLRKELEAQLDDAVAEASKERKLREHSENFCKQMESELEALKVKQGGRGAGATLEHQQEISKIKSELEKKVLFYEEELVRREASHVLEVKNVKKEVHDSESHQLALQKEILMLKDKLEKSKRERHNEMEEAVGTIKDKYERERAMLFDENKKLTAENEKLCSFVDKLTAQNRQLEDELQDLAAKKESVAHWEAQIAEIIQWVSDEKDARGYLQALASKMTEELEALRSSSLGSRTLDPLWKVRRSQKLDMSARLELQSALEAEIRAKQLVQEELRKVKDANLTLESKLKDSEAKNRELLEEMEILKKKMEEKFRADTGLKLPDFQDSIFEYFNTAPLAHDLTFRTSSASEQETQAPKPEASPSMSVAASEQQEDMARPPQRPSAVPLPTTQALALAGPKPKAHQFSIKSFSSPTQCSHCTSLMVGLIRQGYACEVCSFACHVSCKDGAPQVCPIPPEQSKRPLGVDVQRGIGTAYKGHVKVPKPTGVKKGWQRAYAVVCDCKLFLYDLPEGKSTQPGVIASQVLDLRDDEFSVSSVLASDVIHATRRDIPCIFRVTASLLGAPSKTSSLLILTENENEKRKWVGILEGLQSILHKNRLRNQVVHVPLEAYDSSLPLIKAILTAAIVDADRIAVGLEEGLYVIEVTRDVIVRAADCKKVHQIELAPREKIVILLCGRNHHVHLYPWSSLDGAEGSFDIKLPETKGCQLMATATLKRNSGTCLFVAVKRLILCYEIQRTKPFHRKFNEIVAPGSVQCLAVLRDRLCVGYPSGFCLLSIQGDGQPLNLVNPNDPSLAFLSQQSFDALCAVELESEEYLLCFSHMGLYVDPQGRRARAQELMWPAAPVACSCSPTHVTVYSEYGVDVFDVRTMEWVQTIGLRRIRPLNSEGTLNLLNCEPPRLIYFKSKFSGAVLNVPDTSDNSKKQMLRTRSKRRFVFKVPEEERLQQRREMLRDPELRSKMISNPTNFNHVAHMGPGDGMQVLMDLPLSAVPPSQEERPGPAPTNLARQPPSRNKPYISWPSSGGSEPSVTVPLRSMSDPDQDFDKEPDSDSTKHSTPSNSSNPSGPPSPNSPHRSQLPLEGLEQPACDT
Chain of Tyrosine-protein kinase JAK1 (Homo sapiens) (P23458 whole entry): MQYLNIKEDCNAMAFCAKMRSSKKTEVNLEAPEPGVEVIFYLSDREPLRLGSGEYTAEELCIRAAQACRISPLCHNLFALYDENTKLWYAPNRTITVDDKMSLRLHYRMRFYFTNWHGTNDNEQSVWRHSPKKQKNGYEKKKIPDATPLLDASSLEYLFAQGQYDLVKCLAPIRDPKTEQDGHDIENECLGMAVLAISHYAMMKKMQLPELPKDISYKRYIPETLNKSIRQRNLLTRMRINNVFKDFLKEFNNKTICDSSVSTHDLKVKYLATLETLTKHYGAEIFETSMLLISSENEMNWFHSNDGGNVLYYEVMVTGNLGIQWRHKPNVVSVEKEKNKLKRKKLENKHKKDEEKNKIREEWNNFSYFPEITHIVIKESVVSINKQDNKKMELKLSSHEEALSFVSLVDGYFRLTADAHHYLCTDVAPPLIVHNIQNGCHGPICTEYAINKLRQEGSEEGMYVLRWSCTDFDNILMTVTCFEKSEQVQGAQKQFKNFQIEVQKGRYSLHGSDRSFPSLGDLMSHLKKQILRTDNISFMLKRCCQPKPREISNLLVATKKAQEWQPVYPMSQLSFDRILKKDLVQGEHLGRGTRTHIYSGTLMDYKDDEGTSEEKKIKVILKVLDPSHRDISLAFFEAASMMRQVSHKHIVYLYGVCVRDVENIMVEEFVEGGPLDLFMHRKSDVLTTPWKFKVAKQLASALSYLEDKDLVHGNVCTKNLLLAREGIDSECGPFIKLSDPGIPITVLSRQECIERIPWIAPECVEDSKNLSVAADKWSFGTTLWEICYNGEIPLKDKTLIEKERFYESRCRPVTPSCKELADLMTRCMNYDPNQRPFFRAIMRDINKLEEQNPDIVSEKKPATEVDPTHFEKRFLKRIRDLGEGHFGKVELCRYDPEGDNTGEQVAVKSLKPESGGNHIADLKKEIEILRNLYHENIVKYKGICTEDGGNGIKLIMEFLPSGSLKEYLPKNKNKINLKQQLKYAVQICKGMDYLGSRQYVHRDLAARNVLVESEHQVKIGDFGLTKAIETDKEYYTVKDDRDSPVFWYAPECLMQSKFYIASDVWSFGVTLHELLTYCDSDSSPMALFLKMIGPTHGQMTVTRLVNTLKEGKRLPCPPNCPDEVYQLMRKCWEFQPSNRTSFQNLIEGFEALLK
Chain of NUAK family SNF1-like kinase 2 (Homo sapiens) (Q9H093 whole entry): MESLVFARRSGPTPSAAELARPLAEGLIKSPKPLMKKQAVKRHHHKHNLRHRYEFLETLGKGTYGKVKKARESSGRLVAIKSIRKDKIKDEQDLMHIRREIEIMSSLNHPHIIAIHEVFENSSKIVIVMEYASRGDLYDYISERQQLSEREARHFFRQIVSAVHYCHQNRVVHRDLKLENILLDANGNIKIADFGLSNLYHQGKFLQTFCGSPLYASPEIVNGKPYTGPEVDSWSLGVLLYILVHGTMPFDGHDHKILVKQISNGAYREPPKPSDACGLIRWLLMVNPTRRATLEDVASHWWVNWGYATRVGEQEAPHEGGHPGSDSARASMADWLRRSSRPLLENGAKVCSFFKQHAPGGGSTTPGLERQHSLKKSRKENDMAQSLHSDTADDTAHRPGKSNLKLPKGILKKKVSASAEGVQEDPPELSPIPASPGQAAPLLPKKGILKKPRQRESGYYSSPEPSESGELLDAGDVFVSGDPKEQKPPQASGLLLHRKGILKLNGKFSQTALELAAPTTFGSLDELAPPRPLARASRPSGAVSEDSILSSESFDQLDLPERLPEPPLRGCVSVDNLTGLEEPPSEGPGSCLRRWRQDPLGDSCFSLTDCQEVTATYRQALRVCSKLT
Chain of Mast/stem cell growth factor receptor Kit (Homo sapiens), P10721 [T670I] (P10721 whole entry T670I): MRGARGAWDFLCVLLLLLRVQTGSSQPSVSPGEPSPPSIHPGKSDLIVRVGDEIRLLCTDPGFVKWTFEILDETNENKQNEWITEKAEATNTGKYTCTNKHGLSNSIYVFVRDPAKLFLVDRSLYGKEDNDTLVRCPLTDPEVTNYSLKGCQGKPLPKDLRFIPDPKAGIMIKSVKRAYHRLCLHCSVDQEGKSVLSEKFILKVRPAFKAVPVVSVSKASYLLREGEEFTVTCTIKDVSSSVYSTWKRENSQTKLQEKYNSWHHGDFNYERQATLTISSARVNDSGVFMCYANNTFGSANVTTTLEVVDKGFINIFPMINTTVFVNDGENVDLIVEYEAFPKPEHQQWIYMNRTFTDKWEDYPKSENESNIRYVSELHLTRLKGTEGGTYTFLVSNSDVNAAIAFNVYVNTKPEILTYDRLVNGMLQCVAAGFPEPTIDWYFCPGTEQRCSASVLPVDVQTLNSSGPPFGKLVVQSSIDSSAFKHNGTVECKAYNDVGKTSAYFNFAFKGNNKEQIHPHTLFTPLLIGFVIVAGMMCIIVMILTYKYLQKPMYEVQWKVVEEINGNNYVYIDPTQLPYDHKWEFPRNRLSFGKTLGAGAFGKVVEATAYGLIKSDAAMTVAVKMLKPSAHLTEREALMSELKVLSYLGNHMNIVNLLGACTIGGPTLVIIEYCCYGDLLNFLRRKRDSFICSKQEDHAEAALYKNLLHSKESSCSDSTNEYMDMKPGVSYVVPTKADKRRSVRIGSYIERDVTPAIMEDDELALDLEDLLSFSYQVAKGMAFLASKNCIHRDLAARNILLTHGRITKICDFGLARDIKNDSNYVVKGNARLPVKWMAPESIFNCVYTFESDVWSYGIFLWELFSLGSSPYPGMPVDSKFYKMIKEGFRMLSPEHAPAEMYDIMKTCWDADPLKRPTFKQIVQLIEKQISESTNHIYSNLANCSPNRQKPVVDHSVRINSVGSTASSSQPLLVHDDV
Chain of Dual specificity protein kinase CLK1 (Homo sapiens) (P49759 whole entry, looked up): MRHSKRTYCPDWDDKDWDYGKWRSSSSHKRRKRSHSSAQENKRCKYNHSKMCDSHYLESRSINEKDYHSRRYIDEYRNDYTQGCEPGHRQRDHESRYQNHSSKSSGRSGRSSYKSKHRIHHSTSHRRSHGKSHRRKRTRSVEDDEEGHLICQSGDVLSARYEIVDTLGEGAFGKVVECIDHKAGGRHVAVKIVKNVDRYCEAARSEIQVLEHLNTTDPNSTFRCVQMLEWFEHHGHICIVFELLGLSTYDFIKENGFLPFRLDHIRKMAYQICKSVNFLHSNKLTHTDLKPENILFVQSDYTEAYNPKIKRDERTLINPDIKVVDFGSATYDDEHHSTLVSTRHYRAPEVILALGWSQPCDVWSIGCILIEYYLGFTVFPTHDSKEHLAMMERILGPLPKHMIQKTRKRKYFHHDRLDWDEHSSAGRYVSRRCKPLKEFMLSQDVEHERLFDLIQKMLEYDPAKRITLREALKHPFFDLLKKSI

Compound `COc1ccc2c3ccnc(C(F)(F)F)c3n(CCCCN)c2c1` has an inhibition [1] of 8%, an inhibition [2] of 6% and an inhibition [3] of 0%. For the same compound, the inhibition [4] was 37%, the inhibition [5] was 15% and the inhibition [6] was 0%. For the same compound, the inhibition [7] was 9%, the inhibition [8] was 100% and the inhibition [9] was 8%. It also gave an inhibition [10] of 10%, an inhibition [11] of 7% and an inhibition [12] of 27%. For the same compound, the inhibition [13] was 0%, the inhibition [14] was 17% and the inhibition [15] was 15%. The inhibition [16] was 78%, the inhibition [17] was 5% and the inhibition [18] was 6%. The inhibition [19] was 27%, the inhibition [20] was 0% and the inhibition [21] was 5%. The inhibition [22] was 0%, the inhibition [23] was 12% and the inhibition [24] was 0%. For the same compound, the inhibition [25] was 25%, the inhibition [26] was 7% and the inhibition [27] was 16%. For the same compound, the inhibition [28] was 0%, the inhibition [29] was 34% and the inhibition [30] was 0%. For the same compound, the IC50 [31] was 100 nM, the inhibition [32] was 16% and the inhibition [33] was 5%. The inhibition [34] was 4% and the inhibition [35] was 55%.
